These results are taken from article PMC11574021, “CEP192 localises mitotic Aurora-A activity by priming its interaction with TPX2” (The EMBO Journal, 2024).

Common to all, as to assay type: cell-based, Homo sapiens
Assay [1] deals with Aurora-A:TACC3 complexes in RPE1 p53-/- cells. In words: Proximity ligation assay Aurora-A:TACC3, RPE1 p53-/-. Conditions: siRNA 48 h. Here is the method: siRNA depletion was carried out by reverse transfection using oligofectamine (Thermo Scientific, 12252011) and lipofectamine RNAiMax (Thermo Scientific, 13778075), according to the manufacturer’s instructions, for U251 and RPE1 cells, respectively. For immunofluorescence, 1 × 10^5 cells were seeded in six-well plates and simultaneously transfected with 60 pmol siRNA duplex and 3 µl transfection reagent diluted in 200 µl Opti-MEM serum-free medium. Growth medium was added to a final volume of 2 ml. For western blotting, 1 × 10^6 cells were seeded in 10 cm dishes and transfected with 300 pmol siRNA duplex and 15 µl transfection reagent diluted in 1000 µl Opti-MEM. Growth medium was added to a final volume of 10 ml. Cells were incubated with siRNA for 48 h prior to fixation or harvesting. As a negative control (siControl) Silencer select negative control No.1 siRNA was transfected as above. For TACC3 depletion, where two siRNA duplexes were used, 40 pmol of each was transfected per well.
Cells were seeded and fixed as above, then a proximity ligation assay (PLA) was carried out according to the manufacturer’s instructions with the supplied buffers (Navinci, NaveniFlex Cell MR Red, NC.MR.100 Red). All incubations are for 1 h at 37 °C, unless otherwise stated. […]

Assay [2] concerns LATS2-pS83 in RPE1 p53-/- cells. In words: Immunofluorescence, LATS2-pS83 spindle pole signal intensity, RPE1 p53-/-. To be noted: Aurora-A inhibitor 30 min (500 nM). How it is done: (§1) As noted in the figures, the following drugs were incubated with cells for 30 min at 37 °C: Aurora-B-i ZM447439 2 µM [10 mM], PLK1-I BI2536 1 µM [10 mM] and Aurora-A-i MLN8237 [5 mM] was used at 250 and 500 nM in U251 and RPE1 cells, respectively. Drugs were resuspended in DMSO to the stock concentrations indicated in square brackets. BI2536 (HY-50698), MLN8237 (HY-10971) and ZM447439 (HY-10128) were all purchased from MedChemExpress. For western blotting, a 20-min pre-treatment with proteasome inhibitor (20 µM MG-132, MerckMillipore, 47490 [20 mM]) was required prior to the addition of DMSO control or kinase inhibitors. This prevented mitotic exit as a consequence of checkpoint override following Aurora-A and Aurora-B inhibitor addition.
(§2) For siRNA depletion, 1 × 10^5 cells were seeded in six-well plates and transfected as described above for 48 h prior to fixation. For all other experiments, 2.5 × 10^5 cells were seeded in six-well plates and grown for 24 h before fixation. All cells were grown on 12 mm diameter glass coverslips (VWR, 631–1577). […]
(§3) For CEP192, LATS2-pS83, PCNT, PLK1 and γ-tubulin intensity, a 20-pixel diameter circle was centred over each centrosome and the intensity measured. […]

In assay [3] the test system is NuMA in RPE1 p53-/- cells. The experiment in a line: Immunofluorescence, NuMA spindle pole signal intensity, RPE1 p53-/-. Conditions: Aurora-A inhibitor 30 min (500 nM), compared with RΔ11. Here is the method:
as §1, §2, §3

Regarding 5′-CGGUAGUGAUAAAAGCUCAtt-3′ [siTPX2], the “PLA foci formation between TACC3 and Aurora-A antibodies” value in assay [1] is “fully prevented both spindle recruitment of TACC3 and PLA foci formation”.
`COc1cc(Nc2ncc3c(n2)-c2ccc(Cl)cc2C(c2c(F)cccc2OC)=NC3)ccc1C(=O)O` [Alisertib]: the “reduction of pS83 LATS2 levels” value in assay [2] was 50%; in assay [2] (listed as Aurora-A inhibition), “about 50%”. Further, the “NuMA levels at spindle poles” value in assay [3] is “equally high in R∆11 and Aurora-A inhibitor-treated cells”.
